Earlier results on one compound are cited in patent publication US9084838B2, “Feminine care absorbent article for use in warm climates” (Kimberly-Clark Worldwide, Inc., priority 2011, dated 2015).

For the series the following is noted: at 25° C.

Take `O=C(O)CC(O)(CC(=O)O)C(=O)O` [citric acid]: the pKa2 is on record as 4.76 and the pKa3 is 6.40.
